Earlier results on one molecule are cited in patent publication US9314435B2, “Stable formulations of antiplatelet agents, omega-3 fatty acids and amylose in soft gelatin capsules” (ALTERGON S.A., priority 2011, dated 2016).

Molecules are shown by their SMILES.

The conditions of this series: 325 mg on alternate days.

Turning to `CC(=O)Oc1ccccc1C(=O)O` [ASA, Acetylsalicylic acid], the “reduction of the risk of the first heart attack” value is listed as 44%.
